This passage reports IC50 results from patent US9273046B2, “Fused tricyclic compounds as Raf kinase inhibitors” (BeiGene, LTD., priority 2011, dated 2016).

Where two headings read alike, the source gives them in different places.

The target in one assay is C-Raf (Y340D/Y341D) (Homo sapiens (Human), UniProt P04049, Y340D/Y341D). The experiment in a line: Raf IC50 assay, time-resolved fluorescence energy transfer (TR-FRET), C-Raf. Format: biochemical. Conditions: 0.5 nM C-Raf, 0.1 mM ATP, GST-tagged MEK1 substrate, 60 min preincubation. The procedure:
The assay was carried out in reactions (10 μL) containing 0.0625 nM B-Raf or 0.5 nM C-Raf, 25 mM Tris pH7.4, 10 mM MgCl2, 0.5 mM EGTA, 0.5 mM […], 5 mM beta-glycerophosphate, 0.01% Triton X-100, 2.5 mM DTT, 0.1% BSA, 0.1 mM ATP, 13.7 nM GST-tagged MEK1 (Full-length protein with K97R mutation, recombinant protein purified from bacterial expression system) and 0-5 μM compounds disclosed herein (final concentration of 1% DMSO). The enzyme was incubated with the compounds at room temperature for 60 minutes and the reactions were initiated by the addition of ATP and GST-MEK1. After incubating at room temperature for 60 minutes, an equal volume of stop buffer containing 25 mM Tris pH7.4, 400 mM KF, 50 mM EDTA, 0.01% BSA, 0.01% Triton X-100, 1 test of Eu3+ Cryptate-conjugated rabbit polyclonal antibody anti-Phospho MEK1/2 (Ser217/221) and 1 test of d2-conjugated mouse monoclonal antibody anti-glutathione S-transferase was added to stop the reactions. Plates were sealed and incubated at room temperature for 2 hours, and then the TR-FRET signals were read on BMG PHERAstar FS instrument. The IC50 for each compound was calculated by non linear regression by Graphpad Prism software.
For orientation: Time-resolved FRET reads energy transfer from a long-lived donor to a nearby acceptor.

Another assay concerns the target B-Raf (V600E) (Homo sapiens (Human), UniProt P15056, V600E). The experiment in a line: Raf IC50 assay, time-resolved fluorescence energy transfer (TR-FRET), B-Raf. Format: biochemical. The procedure: The enzyme was incubated with the compounds at room temperature for 60 minutes and the reactions were initiated by the addition of ATP and GST-MEK1. […] Plates were sealed and incubated at room temperature for 2 hours, and then the TR-FRET signals were read on BMG PHERAstar FS instrument. The IC50 for each compound was calculated by non linear regression by Graphpad Prism software.

The mark [1] stands for this setting: 0.0625 nM B-Raf, 0.1 mM ATP, GST-tagged MEK1 substrate, 60 min preincubation, read-out: B-Raf (V600E) IC50.

The term IC50 denotes the concentration needed to halve the response being measured.

Sequence of C-Raf (Y340D/Y341D) (P04049 whole entry Y340D/Y341D): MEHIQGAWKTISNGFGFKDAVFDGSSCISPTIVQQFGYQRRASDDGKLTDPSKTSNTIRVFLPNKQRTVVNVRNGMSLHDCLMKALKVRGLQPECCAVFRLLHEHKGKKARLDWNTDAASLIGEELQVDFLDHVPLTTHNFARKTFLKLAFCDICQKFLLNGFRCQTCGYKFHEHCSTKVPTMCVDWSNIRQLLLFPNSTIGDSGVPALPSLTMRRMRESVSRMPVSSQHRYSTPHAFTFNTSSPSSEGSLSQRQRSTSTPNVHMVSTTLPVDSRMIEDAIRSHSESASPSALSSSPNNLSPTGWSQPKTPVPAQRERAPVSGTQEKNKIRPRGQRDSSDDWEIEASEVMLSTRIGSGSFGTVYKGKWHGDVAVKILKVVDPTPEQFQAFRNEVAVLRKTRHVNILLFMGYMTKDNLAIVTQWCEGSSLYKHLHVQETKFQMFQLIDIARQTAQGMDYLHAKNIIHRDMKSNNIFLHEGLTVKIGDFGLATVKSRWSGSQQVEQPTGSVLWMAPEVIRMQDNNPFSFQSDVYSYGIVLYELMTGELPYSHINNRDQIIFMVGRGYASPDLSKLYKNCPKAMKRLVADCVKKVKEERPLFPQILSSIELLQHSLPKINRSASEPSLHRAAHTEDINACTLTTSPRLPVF
Sequence of B-Raf (V600E) (P15056 whole entry V600E): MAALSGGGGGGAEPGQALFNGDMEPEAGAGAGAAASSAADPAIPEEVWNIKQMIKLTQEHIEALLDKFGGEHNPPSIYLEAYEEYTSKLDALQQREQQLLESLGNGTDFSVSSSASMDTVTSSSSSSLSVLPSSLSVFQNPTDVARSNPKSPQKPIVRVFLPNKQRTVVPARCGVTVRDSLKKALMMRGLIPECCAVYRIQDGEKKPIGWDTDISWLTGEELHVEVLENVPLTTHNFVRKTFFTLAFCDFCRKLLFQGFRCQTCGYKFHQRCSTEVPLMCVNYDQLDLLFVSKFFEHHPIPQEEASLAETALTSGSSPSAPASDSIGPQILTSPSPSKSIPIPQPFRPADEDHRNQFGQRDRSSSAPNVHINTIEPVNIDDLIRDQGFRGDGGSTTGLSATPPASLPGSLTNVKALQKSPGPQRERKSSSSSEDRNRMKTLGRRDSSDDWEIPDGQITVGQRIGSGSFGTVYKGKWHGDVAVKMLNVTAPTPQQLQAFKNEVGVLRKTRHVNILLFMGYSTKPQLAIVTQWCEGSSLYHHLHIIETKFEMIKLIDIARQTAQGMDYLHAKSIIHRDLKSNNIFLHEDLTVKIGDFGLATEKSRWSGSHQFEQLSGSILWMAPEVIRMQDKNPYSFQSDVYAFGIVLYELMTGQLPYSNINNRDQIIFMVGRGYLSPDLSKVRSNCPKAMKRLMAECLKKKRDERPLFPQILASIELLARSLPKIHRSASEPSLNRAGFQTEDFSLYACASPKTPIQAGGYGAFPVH

`FC(F)(F)c1ccc2nc(C3C4Oc5ccc(Oc6ccncn6)cc5C43)[nH]c2c1` (racemic) [Compound 3.2, (±)-exo-2-(5-(pyrimidin-4-yloxy)-1a,6b-dihydro-1H-cyclopropa[b]benzofuran-1-yl)-6-(trifluoromethyl)-1H-benzo[d]imidazole] gave a half-maximal inhibitory concentration (IC50) on C-Raf (Y340D/Y341D) of 223 nM.

For `O=C1CCc2c(Oc3ccc4c(c3)C3C(O4)C3c3nc4ccc(O)cc4[nH]3)ccnc2N1` (racemic) [Compound 2.27, (±)-exo-5-((1-(6-hydroxy-1H-benzo[d]imidazol-2-yl)-1a,6b-dihydro-1H-cyclopropa[b]benzofuran-5-yl)oxy)-3,4-dihydro-1,8-naphthyridin-2(1H)-one], the values for the IC50 at B-Raf (V600E) (setting [1]) and against C-Raf (Y340D/Y341D) were 2.5 nM and below 0.25 nM, respectively.

Consider `O=C1Nc2nccc(Oc3ccc4c(c3)C3C(O4)C3c3nc4ccc(C(F)(F)F)cc4[nH]3)c2CO1` (racemic) [Compound 3.7, (±)-exo-5-((1-(6-(trifluoromethyl)-1H-benzo[d]imidazol-2-yl)-1a,6b-dihydro-1H-cyclopropa[b]benzofuran-5-yl)oxy)-1H-pyrido[2,3-d][1,3]oxazin-2(4H)-one], for which the concentration for half-maximal inhibition (IC50) on B-Raf (V600E) (setting [1]) was determined as 26 nM; against C-Raf (Y340D/Y341D), 3.2 nM.

With `O=C1CCc2c(Oc3ccc4c(c3)C3C(O4)C3c3nc4ccncc4[nH]3)ccnc2N1` (stereo not shown) [Compound 2.9], the values for the half-maximal inhibitory concentration (IC50) on B-Raf (V600E) (setting [1]) and against C-Raf (Y340D/Y341D) were 42 nM and 4.5 nM, respectively.

With `Cn1c(C2C3Oc4ccc(Oc5ccnc6c5CCC(=O)N6)cc4C32)nc2ccccc21` (stereo not shown) [Compound 2.15], the 50% inhibitory concentration (IC50) came out at 12 nM on B-Raf (V600E) (setting [1]) and 3.6 nM on C-Raf (Y340D/Y341D).

As for `COc1ccc2nc(C3C4Oc5ccc(Oc6ccnc7c6CCC(=O)N7)cc5C43)[nH]c2c1` (stereo not shown) [Compound 2.16], the half-maximal inhibitory concentration (IC50) at B-Raf (V600E) (setting [1]) stood at 15 nM; on C-Raf (Y340D/Y341D), 3.8 nM.

For the compound `O=C1CCc2c(Oc3ccc4c(c3)[C@H]3[C@@H](O4)[C@@H]3c3nc4cc(Cl)c(C(F)(F)F)cc4[nH]3)ccnc2N1` [Compound 2.5b], the half-inhibitory concentration (IC50) on C-Raf (Y340D/Y341D) was 2.5 nM.

As to `O=C1CCc2c(Oc3ccc4c(c3)C3C(O4)C3c3nc4ccc(F)cc4[nH]3)ccnc2N1` (stereo not shown) [Compound 2.7], the IC50 at B-Raf (V600E) (setting [1]) came to 10 nM; against C-Raf (Y340D/Y341D), 2.1 nM.

Regarding `O=C1CCc2c(Oc3ccc4c(c3)C3C(O4)C3c3nc4ccc(Br)cc4[nH]3)ccnc2N1` (stereo not shown) [Compound 2.13], the figures for the IC50 on B-Raf (V600E) (setting [1]) and against C-Raf (Y340D/Y341D) were 7.2 nM and 1.7 nM, respectively.

Regarding `O=C1CCc2c(Oc3ccc4c(c3)C3C(O4)C3c3nc4ccc(OC(F)(F)F)cc4[nH]3)ccnc2N1` (stereo not shown) [Compound 2.14], the concentration for half-maximal inhibition (IC50) at B-Raf (V600E) (setting [1]) amounted to 28 nM; on C-Raf (Y340D/Y341D), 9.7 nM.

Consider `O=C1CCc2c(Oc3ccc4c(c3)C3C(O4)C3c3nc4ccccc4[nH]3)ccnc2N1` (racemic) [Compound 2.1, (±)-exo-5-((1-(1H-benzo[d]imidazol-2-yl)-1a,6b-dihydro-1H-cyclopropa[b]benzofuran-5-yl)oxy)-3,4-dihydro-1,8-naphthyridin-2(1H)-one], for which the concentration for half-maximal inhibition (IC50) was 3.1 nM on B-Raf (V600E) (setting [1]) and 0.3 nM at C-Raf (Y340D/Y341D).

Take `O=C1CCc2c(Oc3ccc4c(c3)C3C(O4)C3c3nc4cc(F)c(F)cc4[nH]3)ccnc2N1` (stereo not shown) [Compound 2.11]: the IC50 on B-Raf (V600E) (setting [1]) came out at 5.9 nM; against C-Raf (Y340D/Y341D), 3.3 nM.

With `O=C1CCc2c(Oc3ccc4c(c3)C3C(C4)C3c3nc4ccccc4s3)ccnc2N1` (racemic) [Compound 1.3, (±)-exo-5-((1-(benzo[d]thiazol-2-yl)-1,1a,6,6a-tetrahydrocyclopropa[a]inden-3-yl)oxy)-3,4-dihydro-1,8-naphthyridin-2(1H)-one], the IC50 at B-Raf (V600E) (setting [1]) came out at 88 nM; against C-Raf (Y340D/Y341D), 5.5 nM.

Take `O=C1CCc2c(Oc3ccc4c(c3)C3C(O4)C3c3nc4cccc(F)c4[nH]3)ccnc2N1` (stereo not shown) [Compound 2.19]: the half-maximal inhibitory concentration (IC50) at B-Raf (V600E) (setting [1]) amounted to 11 nM; on C-Raf (Y340D/Y341D) it was 1.6 nM.

Turning to `O=C1CCc2c(Oc3ccc4c(c3)C3C(C4)C3c3nc4ccccc4[nH]3)ccnc2N1` (racemic) [Compound 1.1, (±)-exo-5-((1-(1H-benzo[d]imidazol-2-yl)-1,1a,6,6a-tetrahydrocyclopropa[a]inden-3-yl)oxy)-3,4-dihydro-1,8-naphthyridin-2(1H)-one], the IC50 at B-Raf (V600E) (setting [1]) amounted to 11 nM.

Turning to `O=C1CCc2c(Oc3ccc4c(c3)C3C(O4)C3c3nc(-c4ccccc4Cl)c[nH]3)ccnc2N1` (stereo not shown) [Compound 2.32], the concentration for half-maximal inhibition (IC50) was found to be 3.3 nM at B-Raf (V600E) (setting [1]) and 0.9 nM on C-Raf (Y340D/Y341D).

As for `O=C1CCc2c(Oc3ccc4c(c3)C3C(O4)C3C(=O)O)ccnc2N1` (racemic) [Intermediate II, (±)-exo-5-((7-Oxo-5,6,7,8-tetrahydro-1,8-naphthyridin-4-yl)oxy)-1a,6b-dihydro-1H-cyclopropa[b]benzofuran-1-carboxylic acid], the half-inhibitory concentration (IC50) at B-Raf (V600E) is above 5000 nM; at C-Raf (Y340D/Y341D), 2910 nM.

For `O=C1CCc2c(Oc3ccc4c(c3)[C@@H]3[C@H](O4)[C@H]3c3nc4ccc(C(F)(F)F)cc4[nH]3)ccnc2N1` [Compound 2.2b, 5-(((1R,1aS,6bR)-1-(6-(trifluoromethyl)-1H-benzo[d]imidazol-2-yl)-1a,6b-dihydro-1H-cyclopropa[b]benzofuran-5-yl)oxy)-3,4-dihydro-1,8-naphthyridin-2(1H)-one], the IC50 came to 53 nM on B-Raf (V600E) (setting [1]) and 8.8 nM on C-Raf (Y340D/Y341D).

On to `O=C1CCc2c(Oc3ccc4c(c3)[C@@H]3[C@H](O4)[C@H]3c3nc4cc(Cl)c(C(F)(F)F)cc4[nH]3)ccnc2N1` [Compound 2.5a], for which, at C-Raf (Y340D/Y341D), half-maximal inhibition (IC50) was put at 21 nM.

Regarding `N#Cc1ccc2nc(C3C4Oc5ccc(Oc6ccnc7c6CCC(=O)N7)cc5C43)[nH]c2c1` (stereo not shown) [Compound 2.6], the IC50 at B-Raf (V600E) (setting [1]) is 22 nM; against C-Raf (Y340D/Y341D), 4.5 nM.

For the compound `Cn1c(C2C3Oc4ccc(Oc5ccnc6c5CCC(=O)N6)cc4C32)nc2cc(C(F)(F)F)ccc21` (stereo not shown) [Compound 2.24], the IC50 was 47 nM on B-Raf (V600E) (setting [1]) and 4.3 nM against C-Raf (Y340D/Y341D).

Turning to `O=C1CCc2c(Oc3ccc4c(c3)[C@H]3[C@@H](O4)[C@@H]3c3nc4ccc(C(F)(F)F)cc4[nH]3)ccnc2N1` [Compound 2.2a], the IC50 on B-Raf (V600E) (setting [1]) worked out at 6.7 nM; at C-Raf (Y340D/Y341D) it was 1.2 nM.

With `O=C1CCc2c(Oc3ccc4c(c3)C3C(O4)C3c3nc4cccc(C(F)(F)F)c4[nH]3)ccnc2N1` (stereo not shown) [Compound 2.18], the IC50 at B-Raf (V600E) (setting [1]) worked out at 89 nM; at C-Raf (Y340D/Y341D), 6.2 nM.

Regarding `O=C1CCc2c(Oc3ccc4c(c3)C3C(O4)C3c3nc(-c4ccncc4)c[nH]3)ccnc2N1` (stereo not shown) [Compound 2.31], the half-inhibitory concentration (IC50) at B-Raf (V600E) (setting [1]) was determined as 3.7 nM; at C-Raf (Y340D/Y341D) it was 0.35 nM.

Consider `O=C1CCc2c(Oc3cccc4c3OC3C(c5nc6ccc(C(F)(F)F)cc6[nH]5)C43)ccnc2N1` (stereo not shown) [Compound 2.25], for which the results for the IC50 on B-Raf (V600E) (setting [1]) and on C-Raf (Y340D/Y341D) were 849 nM and 36 nM, respectively.

For `Cc1cc2[nH]c([C@@H]3[C@H]4Oc5ccc(Oc6ccnc7c6CCC(=O)N7)cc5[C@H]43)nc2cc1F` [Compound 2.4a], the IC50 against C-Raf (Y340D/Y341D) stood at 0.54 nM.

Take `FC(F)(F)c1ccc2nc(C3C4Oc5ccc(Oc6ccncc6)cc5C43)[nH]c2c1` (racemic) [Compound 3.6, (±)-exo-2-(5-(pyridin-4-yloxy)-1a,6b-dihydro-1H-cyclopropa[b]benzofuran-1-yl)-6-(trifluoromethyl)-1H-benzo[d]imidazole]: the concentration for half-maximal inhibition (IC50) came out at 518 nM on B-Raf (V600E) (setting [1]) and 86 nM on C-Raf (Y340D/Y341D).

With `Cn1c(C2C3Oc4ccc(Oc5ccnc6c5CCC(=O)N6)cc4C32)nc2ccc(C(F)(F)F)cc21` (stereo not shown) [Compound 2.23], the IC50 is 204 nM at B-Raf (V600E) (setting [1]) and 35 nM against C-Raf (Y340D/Y341D).

For the compound `O=C1CCc2c(Oc3ccc4c(c3)C3C(O4)C3c3nc(-c4ccccc4)no3)ccnc2N1` (racemic) [Compound 2.29, (±)-exo-5-((1-(3-phenyl-1,2,4-oxadiazol-5-yl)-1a,6b-dihydro-1H-cyclopropa[b]benzofuran-5-yl)oxy)-3,4-dihydro-1,8-naphthyridin-2(1H)-one], the 50% inhibitory concentration (IC50) is 3.2 nM at B-Raf (V600E) (setting [1]) and below 0.25 nM against C-Raf (Y340D/Y341D).

In the case of `O=C1CCc2c(Oc3ccc4c(c3)C3C(O4)C3c3nc4ccc(Cl)cc4[nH]3)ccnc2N1` (stereo not shown) [Compound 2.12], the 50% inhibitory concentration (IC50) at B-Raf (V600E) (setting [1]) was determined as 12 nM; at C-Raf (Y340D/Y341D) it was 4.1 nM.

For `O=C1CCc2c(Oc3ccc4c(c3)C3C(O4)C3c3nc4cc5c(cc4[nH]3)CCC5)ccnc2N1` (stereo not shown) [Compound 2.21], the IC50 on B-Raf (V600E) (setting [1]) was 1.2 nM.

Turning to `O=C1CCc2c(Oc3ccc4c(c3)C3C(O4)C3c3nc4cc(C(F)(F)F)ccc4n3CCO)ccnc2N1` (racemic) [Compound 2.34, (±)-exo-5-((1-(1-(2-hydroxyethyl)-5-(trifluoromethyl)-1H-benzo[d]imidazol-2-yl)-1a,6b-dihydro-1H-cyclopropa[b]benzofuran-5-yl)oxy)-3,4-dihydro-1,8-naphthyridin-2(1H)-one], the IC50 at B-Raf (V600E) (setting [1]) is 30 nM.

For `CNC(=O)c1cc(Oc2ccc3c(c2)C2C(O3)C2c2nc3ccc(C(F)(F)F)cc3[nH]2)ccn1` (racemic) [Compound 3.1, (±)-exo-N-methyl-4-((1-(6-(trifluoromethyl)-1H-benzo[d]imidazol-2-yl)-1a,6b-dihydro-1H-cyclopropa[b]benzofuran-5-yl)oxy)picolinamide], 6.5 nM corresponded to half-maximal inhibition against C-Raf (Y340D/Y341D) (IC50).
